In patent US20250163484A1, “Methods for Incorporating Azido Groups in Bacterial Capsular Polysaccharides” (PFIZER INC., priority 2022, published 2025):
“And” between values parts separate entries of the source, which are not always exact repeats. Identical values can stand only once. Like-named read-outs stand apart in the source and are kept apart here.

Test system: S. pneumoniae T14 capsule polysaccharide
Type: cell-based, Streptococcus pneumoniae serotype 14
Protocol: FIGS. 1A-1D. Screen for azido sugar incorporation into S. pneumoniae T14 capsule polysaccharide. […] Bacteria were grown until the ΔOD600≥0 for >30 minutes, then lysed with 0.1% NLS for 30 minutes. Growth was measured offline using a spectrophotometer blanked with PBS at 600 nm. (FIG. 1A) azido incorporation into polysaccharide was then quantified via fluorescent labeling (FL) with normalization to refractive index (RI). MaxOD and End Of Fermentation time (EOF) are provided in (FIG. 1B) and (FIG. 1C), respectively. Polysaccharide was extracted using EtOH and CaCl2 and analyzed via SEC-RI for (FIG. 1D) polysaccharide titer. n=1-4, error bars=+/−StDev.
A SEC fluorescence and Refractive index assay (SEC-FL/RI) was used for azide measurement to confirm the incorporation of azide modification.
Click-It Cell Reaction Buffer kit and Alexa Fluor 488 Alkyne were purchased from Invitrogen.
The initial procedure when running the SEC-FL/RI was to prepare the sample to a target concentration of 0.01 mg/m by mixing a pre-diluted polysaccharide to the final target concentration with the Click Reaction mixture. The reaction mixture consisted of 2.67 mM CuSO4, 2.67 mg/mL cell additive reagent, and 20 uM Alexa Fluor Alkyne. This was mixed with the sample at a 3:1 ratio of reaction mixture to sample and incubated in the absence of light. Reactions were transferred to HPLC vials and ran on the SEC-FL/RI HPLC setup. The RI detector (RID) allowed for detection of the polysaccharide while the Fluorescence Detector (FLD) was used to determine the level of fluor incorporated into the polysaccharide sample. The ratio of the two peak areas gave a measurement for the amount of azide incorporated to the polysaccharide.
Later, in addition to the incubation of the sample for thirty minutes, a buffer exchange step was added that washed out the unreacted fluor as well as the reaction matrix reagents in order to improve the baselines of the FLD and RID during the HPLC run. This added greater resolution of the peak associated with the azide functionalized polysaccharide. The assay was useful for relative quantitation of azide incorporation into the polysaccharide but could not quantify an exact numerical concentration. To improve this aspect work was undertaken to use a polysaccharide with known levels of azido functionalization to make a standard curve that varied the % Azido while keeping the polysaccharide mass the same. This was done by mixing the known azido modified poly (polysaccharide) with specific amounts of native (unmodified) polysaccharide. A strong linear fit for the generated standard curve was seen.
The values for percent azide were able to be converted to a μM azide per mM polysaccharide by converting from % azide using the constant polysaccharide concentration.

[N-]=[N+]=N[C@@H](C=O)[C@@H](O)[C@H](O)[C@H](O)CO [2AzGlc, 2-Azido-2-deoxy-D-glucose]
increase between lowest and higher FL/RI achieved (2AzGlc titration 1-60 mM, production media + Glucose (dextrose, 30 g/L)): 10 fold
FL/RI (azido feed DOE: Gal 30 g/L, initial 2AzGlc 0 mM, 2AzGlc feed stock 4 mM, pH 7.33, 300 rpm): 101.45 and 103.61
FL/RI (azido feed DOE: Gal 30 g/L, initial 2AzGlc 0 mM, 2AzGlc feed stock 6.5 mM, pH 7.33, 300 rpm): 113.82 and 121.9
FL/RI (azido feed DOE: Gal 30 g/L, initial 2AzGlc 0.1 mM, 2AzGlc feed stock 4 mM, pH 7.33, 300 rpm): 116.16 and 116.31
FL/RI (azido feed DOE: Gal 30 g/L, initial 2AzGlc 0.1 mM, 2AzGlc feed stock 6.5 mM, pH 7.33, 300 rpm): 84.53 and 83.69
FL/RI (azido feed DOE: Gal 40 g/L, initial 2AzGlc 0 mM, 2AzGlc feed stock 4 mM, pH 7.33, 300 rpm): 97.04 and 114.22
FL/RI (azido feed DOE: Gal 40 g/L, initial 2AzGlc 0 mM, 2AzGlc feed stock 6.5 mM, pH 7.33, 300 rpm): 122.7 and 110.09
FL/RI (azido feed DOE: Gal 40 g/L, initial 2AzGlc 0.1 mM, 2AzGlc feed stock 4 mM, pH 7.33, 300 rpm): 125.02 and 122.41
FL/RI (azido feed DOE: Gal 40 g/L, initial 2AzGlc 0.1 mM, 2AzGlc feed stock 6.5 mM, pH 7.33, 300 rpm): 79.3 and 63.19
FL/RI (fed-batch, initial galactose 5.0 g/L, 0.25 mM 2AzGlc, galactose feed rate FR #1): 45
FL/RI (fed-batch, initial galactose 5.0 g/L, 0.25 mM 2AzGlc, galactose feed rate FR #2): 18
average FL/RI (initial galactose 40 g/L, initial 2AzGlc 0.1 mM, 4.0 mM 2AzGlc feed stock): 123.7
FL/RI (production media + 2AzGlc (10 mM), pH 6.33, agitation 100 rpm): 91.9 and 100.7
FL/RI (production media + 2AzGlc (10 mM), pH 6.33, agitation 300 rpm): 98.3 and 97.5
FL/RI (production media + 2AzGlc (10 mM), pH 6.66, agitation 200 rpm): 114.5 and 135.0
FL/RI (production media + 2AzGlc (10 mM), pH 7, agitation 100 rpm): 117.8 and 118.8
FL/RI (production media + 2AzGlc (10 mM), pH 7, agitation 300 rpm): 115.7 and 107.5
FL/RI (production media + 2AzGlc (10 mM), pH 7.33, agitation 100 rpm): 137.4 and 158.3
FL/RI (production media + 2AzGlc (10 mM), pH 7.33, agitation 200 rpm): 140.8 and 125.0
FL/RI (production media + 2AzGlc (10 mM), pH 7.33, agitation 300 rpm): 113.9 and 137.3
FL/RI (production media + Glucose (dextrose, 30 g/L), media pH 7, 2AzGlc 1 mM): 15
FL/RI (production media + Glucose (dextrose, 30 g/L), media pH 7, 2AzGlc 5 mM): 61
FL/RI (production media + Glucose (dextrose, 30 g/L), media pH 7, 2AzGlc 10 mM): 118
FL/RI (production media + Glucose (dextrose, 30 g/L), media pH 7, 2AzGlc 20 mM): 146
FL/RI (production media + Glucose (dextrose, 30 g/L), media pH 7.33, 2AzGlc 20 mM): 148
FL/RI (production media + Glucose (dextrose, 30 g/L), media pH 7.33, 2AzGlc 40 mM): 157
FL/RI (production media + Glucose (dextrose, 30 g/L), media pH 7.33, 2AzGlc 60 mM): 151
FL/RI (production medium + Galactose (30 g/L) + 2AzGlc (0.25 mM), pH 6.33, agitation 100 rpm): 51.73 and 50.26
FL/RI (production medium + Galactose (30 g/L) + 2AzGlc (0.25 mM), pH 6.33, agitation 200 rpm): 48.41
FL/RI (production medium + Galactose (30 g/L) + 2AzGlc (0.25 mM), pH 6.33, agitation 300 rpm): 45.24 and 44.39
FL/RI (production medium + Galactose (30 g/L) + 2AzGlc (0.25 mM), pH 6.66, agitation 100 rpm): 78.29
FL/RI (production medium + Galactose (30 g/L) + 2AzGlc (0.25 mM), pH 6.66, agitation 300 rpm): 77.94
FL/RI (production medium + Galactose (30 g/L) + 2AzGlc (0.25 mM), pH 7, agitation 200 rpm): 97.25
FL/RI (production medium + Galactose (30 g/L) + 2AzGlc (0.25 mM), pH 7.33, agitation 100 rpm): 101.26 and 88.76
FL/RI (production medium + Galactose (30 g/L) + 2AzGlc (0.25 mM), pH 7.33, agitation 300 rpm): 110 and 109.76 and 110.12
FL/RI (screen, azido sugar 1 mM, production medium + Glucose (dextrose, 30 g/L)): detectable
